Assay results taken from ChEMBL document CHEMBL1127266, “N-sulfonamides of benzopyran-related potassium channel openers: Conversion of glyburide insensitive smooth muscle relaxants to potent smooth muscle contractors” (Bioorg Med Chem Lett, 1994).
Several values for one entry are separate records, joined by “and”; a condition that tells them apart may be missing. Equal values may be shown once.

Tests used:
Format in all cases: functional
Rattus norvegicus [1] = species on record: Rattus norvegicus; experiment: Percent glyburide reversibility as potassium channel (K ATP) opening activity assay
Rattus norvegicus [2] = species on record: Rattus norvegicus; experiment: In vitro evaluation for concentration to inhibit KCI (15 mM ) induced contractions of rat bladder
Rattus norvegicus [3] = species on record: Rattus norvegicus; experiment: In vitro evaluation for concentration to inhibit KCI (25 mM ) induced contractions of rat aorta
Rattus norvegicus [4] = species on record: Rattus norvegicus; experiment: Percent activity at 30 uM as the increase (+) and/or decrease (-) in the contractile response for each individual experiment in rat bladder; parameters: scale not given: the % may be the effect or the level left

Row | IC50 (Rattus norvegicus [2]; Rattus norvegicus) [µM] | SMILES | GR (Rattus norvegicus [1]) | Activity (Rattus norvegicus [4]) [%] | other results
1 | 0.03 | CC1(C)Oc2ccc(OC(F)(F)F)cc2[C@@H](N2Cc3ccccc3C2=O)[C@@H]1O [CELIKALIM] | 80% and 55% | – | IC50 (Rattus norvegicus [3]; Rattus norvegicus, Aorta): 13 nM
2 | 4.6 | CC1(C)Oc2ccc(OC(F)(F)F)cc2[C@@H](NS(=O)(=O)C(F)(F)F)[C@@H]1O (stereo in doubt; 1) [listing 1 of 2 here] | – | – | IC50 (Rattus norvegicus [3]): 8000 nM
3 | – | CC1(C)Oc2ccc(OC(F)(F)F)cc2[C@@H](NS(=O)(=O)C(F)(F)F)[C@@H]1O (stereo in doubt; 8) [listing 1 of 2 here] | – | – | IC50 (Rattus norvegicus [2]): 3.6 µM; IC50 (Rattus norvegicus [3]): 2000 nM
4 | – | CC1(C)Oc2ccc(OC(F)(F)F)cc2[C@@H](NS(=O)(=O)c2ccc([N+](=O)[O-])cc2)[C@@H]1O | – | 195 | –
5 | – | CC1(C)Oc2ccc(OC(F)(F)F)cc2[C@H](NS(=O)(=O)c2ccc([N+](=O)[O-])cc2)[C@H]1O | 0% | 4.68 | –
6 | – | CC1(C)Oc2ccc(OC(F)(F)F)cc2[C@@H](NS(C)(=O)=O)[C@@H]1O | 8% | 3 | –
7 | – | CC1(C)Oc2ccc(OC(F)(F)F)cc2[C@@H](NS(=O)(=O)c2cccnc2)[C@@H]1O | – | 133 | –
8 | – | CC1(C)Oc2ccc(OC(F)(F)F)cc2[C@@H](NS(=O)(=O)c2ccccc2)[C@@H]1O | – | 44 | –
9 | – | CC1(C)Oc2ccc(OC(F)(F)F)cc2[C@@H](NS(=O)(=O)C(F)(F)F)[C@@H]1O (stereo in doubt; 8) [listing 2 of 2 here] | 0% | – | –
10 | – | CC1(C)Oc2ccc(OC(F)(F)F)cc2[C@@H](NS(=O)(=O)CCl)[C@@H]1O | – | 39 | –
11 | – | CC1(C)Oc2ccc(OC(F)(F)F)cc2[C@@H](NS(=O)(=O)C(F)(F)F)[C@@H]1O (stereo in doubt; 1) [listing 2 of 2 here] | 14% and 2% | – | –
12 | – | CN([C@@H]1c2cc(OC(F)(F)F)ccc2OC(C)(C)[C@H]1O)S(=O)(=O)C(F)(F)F | – | 352 | –
13 | 0.15 | CC1(C)Oc2ccc(C#N)cc2[C@H](N2CCCC2=O)[C@H]1O (single isomer, unassigned) [(-)-CROMAKALIM] | 68% and 75% | – | IC50 (Rattus norvegicus [3]; Rattus norvegicus, Aorta): 60 nM
14 | 6.2 | CC1(C)C[C@H](NS(=O)(=O)C(F)(F)F)c2cc(OC(F)(F)F)ccc2O1 | 41% | – | IC50 (Rattus norvegicus [3]; Rattus norvegicus, Aorta): 10700 nM
15 | 7.1 | CC1(C)Oc2ccc(OC(F)(F)F)cc2[C@H](NS(=O)(=O)C(F)(F)F)[C@H]1O | 0% | – | IC50 (Rattus norvegicus [3]; Rattus norvegicus, Aorta): 2600 nM
16 | – | CC1(C)Oc2ccc(OC(F)(F)F)cc2[C@@H](NS(=O)(=O)c2cccc3ccccc23)[C@@H]1O | – | 52 | –
